# How the values were obtained:
# [1] = test system: spleen lymphocytes; assay: Immunostimulatory effects on spleen lymphocytes, cytokines in supernatant by ELISA; type: cell-based, BALB/c or C57BL/6 mouse; details: FIG. 59 and FIG. 60; compared with JQ1 plus SZU-101
# Description: Effect Example 1: Detection of the Immunostimulatory Effects of the SZU-Series Small-Molecule Immune Agonists and Novel Immune Targeted Compounds of the Present Invention on Spleen Lymphocytes
# 1. Extraction of Spleen Lymphocytes
# (1) BALB/c or C57BL/6 mouse spleens were collected, ground in a small dish containing Mouse Lymphocyte Separation Medium, and filtered through a filter membrane (with a pore size of […]) to obtain a cell suspension, which was treated by centrifugation to obtain lymphocytes. The isolated lymphocytes were placed in a 15 mL centrifuge tube, into which 10 mL of 1640 complete medium was added. The mixture was mixed uniformly and centrifuged at 250 g for 10 minutes. The supernatant was discarded.
# (2) The cells were re-suspended with 1 mL of erythrocyte lysate. After 1 minute of lysis, 4 mL of 1640 complete medium was added for termination. The tube was centrifuged at 1,000 rpm for 5 minutes. The supernatant was discarded.
# (3) The cells were re-suspended with 2 mL of 1640 complete medium, counted, and then seeded into 24-well plates at a density of 1×10^6 cells per well.
# 2. Preparation of the Samples
# The spleen lymphocytes seeded into the 24-well plates were stimulated with different concentrations of the SZU-series small-molecule immune agonists and novel immune targeted compounds. The 24-well plate was transferred into an incubator. […]
# [2] = test system: CD274 (PD-L1) on B16 cells; assay: Inhibitory activity against CD274 (PD-L1) on B16 cells; type: cell-based; details: FIG. 61
smiles,measurement,setting,value
COCCOc1nc(N)c2nc(O)n(Cc3ccc(CNC(=O)CCC(=O)NCCOCCOCCOCCNC(=O)C[C@@H]4N=C(c5ccc(Cl)cc5)c5c(sc(C)c5C)-n5c(C)nnc54)cc3)c2n1 [SZU-119],activity of TLR7 agonist for stimulating immune cytokine,[1],retains the activity of TLR7 agonist
same,inhibitory activity against CD274 (PD-L1) on B16 cells,[2],retains the inhibitory activity of JQ1

# Source: patent US12281117B2, “Small molecule immune agonists and immune targeting compounds and application thereof” (SHENZHEN UNIVERSITY, priority 2018, dated 2025)
